{"source": "patent US11268958B2", "about": "“Bacteria-specific labeled substrtates as imaging biomarkers to diagnose, locate, and monitor infections” (THE JOHNS HOPKINS UNIVERSITY, priority 2012, dated 2022)", "key": {"[1]": {"test_system": "Mycobacterium tuberculosis", "description": "(§3) In vitro uptake assays: Freeze dried reference strains of various bacterial species were purchased from American Type Culture Collection (Manassas, Va.) and grown to mid-log phase (OD600 1.0) in Lysogeny Broth (LB) or Middlebrook 7H9 broth supplemented with 10% oleic acid-albumin-dextrose-catalase (Difco, Detroit, Mich.) and 0.05% Tween 80 (Sigma). The number of colony forming units (CFUs) were enumerated by dilution and plating onto solidified media. Tracer uptake assays were performed by incubating bacterial cultures with 7.4 kBq per ml culture of tracer at 37° C. with rapid agitation for 4 hours, with sampling at 0, 30, 120, and 240 minutes. As a control, heat killed (90° C. for 20 minutes) bacteria were similarly incubated with each tracer. Bacteria were pelleted by centrifugation and washed three times with PBS. The activity for each pellet was measured using an automated gamma counter (1282 Compugamma CS Universal gamma counter, LKB Wallac). Background counts were subtracted from sample counts. Six independent replicates were used for each tracer, and for each bacterial strain. Uptake was expressed as the percentage of total tracer added to the culture that resided within the cell pellet."}, "S. aureus": {"test_system": "S. aureus", "experiment": "Scintillation counting of resected tissues in S. aureus thigh infection vs LPS", "format": "in vivo, CBA/J mice", "details": "live S. aureus right thigh, 50 μg LPS left thigh, IV", "procedure": "We next investigated whether [^3H]-2-F-PABA was capable of detecting infection with S. aureus in vivo. […] [^3H]-2-F-PABA was injected IV using a tail vein catheter. Mice were sacrificed following injection, tissues were then resected and radiotracer uptake measured by scintillation counting."}, "[2]": {"test_system": "Staphylococcus aureus, Escherichia coli, Mycobacterium smegmatis", "experiment": "Differential intracellular accumulation in three model bacteria", "details": "S. aureus, E. coli, M. smegmatis", "description": "as §3"}, "Staphylococcus aureus": {"test_system": "Staphylococcus aureus", "experiment": "Intracellular tracer uptake assay in S. aureus cultures", "format": "cell-based", "details": "for intracellular uptake / probe incorporated by bacteria (percent of total radioactivity): S. aureus; for probe incorporated by bacteria (percent of total radioactivity): gram positive control, 120 minutes"}, "Escherichia coli": {"test_system": "Escherichia coli", "experiment": "Intracellular tracer uptake assay in E. coli cultures", "format": "cell-based"}, "J774 macrophages": {"test_system": "J774 macrophages", "experiment": "Tracer uptake in host cells (J774 macrophages)", "format": "cell-based", "details": "for accumulation in eukaryotic cell line: J774 macrophage (data not shown)"}, "heat killed bacteria": {"test_system": "heat killed bacteria", "experiment": "Tracer uptake in heat killed bacteria (negative control)", "format": "cell-based", "excerpt": "Background counts were subtracted from sample counts.\n(§1) [^18F]FDS uptake and imaging. […] Tissues were collected for direct gamma counting."}, "Mycobacterium smegmatis": {"test_system": "Mycobacterium smegmatis", "experiment": "Intracellular tracer uptake assay in M. smegmatis cultures", "details": "2 hours of incubation", "description": "as §3"}, "[3]": {"test_system": "Human Brain Microvascular Endothelial Cells (HBMEC)", "details": "2 h"}, "E. coli": {"test_system": "E. coli", "details": "for right thigh vs. left thigh uptake ratio (gamma counts of resected tissues) / PET signal intensity, infected right thigh versus control left thigh (ROIs): live E. coli right thigh, heat killed E. coli left thigh; for PET signal intensity, infected right thigh versus control left thigh (ROIs): 8 hours incubation"}, "WEHI 164 fibroblasts": {"test_system": "WEHI 164 fibroblasts", "experiment": "Tracer uptake in WEHI 164 fibroblasts", "format": "cell-based", "details": "WEHI 164 fibroblast (data not shown)"}, "[4]": {"test_system": "Enterobacteriaceae family", "experiment": "[18F]FDS uptake in representative organisms: Enterobacteriaceae", "format": "cell-based", "details": "members of the Enterobacteriaceae family", "procedure": "as §1\n(§2) To further assess the specificity of uptake, E. coli cultures were co-incubated with [^18F]FDS and increasing concentrations of unlabeled sorbitol (FIG. 6B). […] The presence of a srl gene cassette responsible for sorbitol transport, phosphorylation, and oxidation was noted within the annotated genome of E. coli. To predict the range of organisms capable of [^18F]FDS uptake, and therefore detection by PET, the srlD, the gene encoding E. coli sorbitol-6-phosphate dehydrogenase was used to query the UniProtKB database of genome sequenced bacterial species. Alignment and percentage identity was calculated using ClustalOmega. We then selected representative organisms from this panel to test for [^18F]FDS uptake (FIG. 6C)."}, "E. coli vs S. aureus": {"test_system": "E. coli vs S. aureus", "experiment": "PET imaging and gamma counting in mixed infection model (E. coli right thigh, S. aureus left thigh)", "details": "6 hours incubation, imaging"}, "K. pneumoniae [5]": {"test_system": "K. pneumoniae", "experiment": "Intracellular tracer uptake assay in K. pneumoniae cultures", "details": "after 120 minutes", "description": "as §3"}, "Pseudomonas aeruginosa": {"test_system": "Pseudomonas aeruginosa", "experiment": "[18F]FDS uptake in representative organisms: Pseudomonas aeruginosa", "format": "cell-based", "details": "aerobic gram-negative rod Pseudomonas aeruginosa", "procedure": "as §1, §2"}, "K. pneumoniae [6]": {"test_system": "K. pneumoniae", "experiment": "PET imaging and gamma counting in K. pneumoniae pulmonary infection model", "format": "in vivo, CBA/J mice"}, "[7]": {"test_system": "Enterococcus, Staphylococcus and Streptococcus species", "experiment": "[18F]FDS uptake in representative organisms: gram positive organisms", "format": "cell-based", "procedure": "as §1, §2"}, "[8]": {"details": "M. tb, ^3H labeled tracers, 18 hours of incubation"}}, "note": "Where two headings read alike, the source gives them in different places."}
{"smiles": "Nc1ccc(C(=O)O)c(F)c1", "note": "[2-F-PABA, 2-fluoro-PABA]", "values": [{"measurement": "intracellular uptake", "setting": "[1]; [8]", "result": 29.4, "unit": "%"}, {"measurement": "right thigh vs. left thigh uptake ratio (scintillation counting)", "setting": "S. aureus", "result": "2.62±0.98"}]}
{"smiles": "Nc1ccc(C(=O)O)cc1F", "note": "[3-F-PABA, 3-fluoro-PABA]", "values": [{"measurement": "intracellular uptake", "setting": "[1]; [8]", "result": 11.2, "unit": "%"}]}
{"smiles": "NC(CCCC(N)C(=O)O)C(=O)O", "note": "(stereo not shown) [DAP, 2,6-diaminopimelic acid]", "values": [{"measurement": "species that take up the compound (differential uptake)", "setting": "[2]", "result": "E. coli and M. smegmatis"}]}
{"smiles": "Nc1ccc(C(=O)O)cc1", "note": "[PABA, p-aminobenzoic acid]", "values": [{"measurement": "accumulation (percent of total radioactivity in bacterial pellet)", "setting": "[1]; 2 h", "result": 32.9, "unit": "%"}, {"measurement": "accumulation (percent of total radioactivity in bacterial pellet)", "setting": "[1]; 18 h", "result": 96.3, "unit": "%"}, {"measurement": "intracellular uptake", "setting": "[1]; 18 h", "result": 58.5, "unit": "%"}, {"measurement": "uptake on addition of excess unlabelled tracer", "setting": "[1]; M. tuberculosis, excess unlabelled tracer", "result": "saturable and specific"}, {"measurement": "uptake saturability/specificity", "setting": "Staphylococcus aureus; S. aureus mid log cultures", "result": "saturable and specific"}, {"measurement": "uptake saturability/specificity", "setting": "Escherichia coli; E. coli mid log cultures", "result": "saturable and specific"}, {"measurement": "accumulation in host-cells", "setting": "J774 macrophages; J774 macrophages, corresponding time-points (2 and 18 hours)", "result": "no significant accumulation"}, {"measurement": "uptake in heat killed bacteria", "setting": "heat killed bacteria", "result": "no uptake"}]}
{"smiles": "O=C[C@H](O)[C@@H](O)[C@H](O)CO", "note": "[XYL, D-xylose]", "values": [{"measurement": "species that take up the compound (differential uptake)", "setting": "[2]", "result": "E. coli alone"}]}
{"smiles": "OC[C@@H](O)[C@@H](O)[C@H](O)[C@H](O)CO", "note": "[[^14C] D-mannitol, D-mannitol]", "values": [{"measurement": "intracellular uptake", "setting": "Staphylococcus aureus; 30 minutes, 5 mM glucose", "result": 33, "unit": "%"}, {"measurement": "intracellular uptake", "setting": "Staphylococcus aureus; 30 minutes, 10 mM glucose", "result": 30, "unit": "%"}, {"measurement": "intracellular uptake", "setting": "Staphylococcus aureus; 30 minutes, without any glucose in the media", "result": 53.5, "unit": "%"}, {"measurement": "intracellular uptake", "setting": "Staphylococcus aureus; 2 hours of incubation", "result": 66, "unit": "%"}, {"measurement": "intracellular uptake", "setting": "Escherichia coli; E. coli, 2 hours of incubation", "result": 82, "unit": "%"}, {"measurement": "uptake", "setting": "J774 macrophages; 2 h", "result": "< 5", "unit": "%"}, {"measurement": "intracellular uptake", "setting": "Mycobacterium smegmatis", "result": 83, "unit": "%"}, {"measurement": "uptake", "setting": "[3]", "result": "< 5", "unit": "%"}, {"measurement": "uptake in heat killed bacteria", "setting": "heat killed bacteria", "result": "No uptake"}]}
{"smiles": "OC[C@H]1OC(O)[C@H]([18F])[C@@H](O)[C@@H]1O", "note": "(stereo partly shown) [[^18F]FDG, 2-[^18F]-fluorodeoxyglucose, reference compound]", "values": [{"measurement": "probe incorporated by bacteria (percent of total radioactivity)", "setting": "Staphylococcus aureus", "result": "50.3%±3.1%"}, {"measurement": "right thigh vs. left thigh uptake ratio (gamma counts of resected tissues)", "setting": "E. coli", "result": "1.03±0.09"}, {"measurement": "PET signal intensity, infected right thigh versus control left thigh (ROIs)", "setting": "E. coli", "result": "did not produce a significant difference"}, {"measurement": "sites of PET signal concentration", "setting": "E. coli; mice, CT coregistration", "result": "heart and bladder"}, {"measurement": "accumulation in eukaryotic cell line", "setting": "WEHI 164 fibroblasts", "result": "accumulated"}, {"measurement": "accumulation in eukaryotic cell line", "setting": "J774 macrophages", "result": "accumulated"}, {"measurement": "uptake in heat killed bacteria", "setting": "heat killed bacteria", "result": "did not incorporate"}]}
{"smiles": "OC[C@@H](O)[C@@H](O)[C@H](O)[C@@H]([18F])CO", "note": "[[^18F]FDS, 2-[^18F]-fluorodeoxysorbitol]", "values": [{"measurement": "probe incorporated by bacteria (percent of total radioactivity)", "setting": "Staphylococcus aureus", "result": "0.47%±0.09%"}, {"measurement": "right thigh vs. left thigh uptake ratio (gamma counts of resected tissues)", "setting": "E. coli", "result": "16.37±4.12"}, {"measurement": "PET signal intensity, infected right thigh versus control left thigh (ROIs)", "setting": "E. coli", "result": 12, "unit": "fold"}, {"measurement": "route of clearance from circulation", "setting": "E. coli; mice, over 120 minutes of recording (data not shown)", "result": "predominantly by the kidneys"}, {"measurement": "accumulation in eukaryotic cell line", "setting": "WEHI 164 fibroblasts", "result": "not"}, {"measurement": "accumulation of the probe", "setting": "[4]", "result": "accumulated"}, {"measurement": "probe associated with bacteria (percent of total radioactivity)", "setting": "Escherichia coli; E. coli K12, after 120 minutes", "result": "72.2%±9.0%"}, {"measurement": "concentration of unlabeled sorbitol that outcompetes uptake", "setting": "Escherichia coli; E. coli co-incubated with increasing unlabeled sorbitol", "result": "above 40 ug/ml"}, {"measurement": "concentration of unlabeled sorbitol that outcompetes uptake", "setting": "Escherichia coli; E. coli co-incubated with increasing unlabeled sorbitol (FIG. 6B legend)", "result": "above 40 μg/ml"}, {"measurement": "PET signal at E. coli infected thigh versus S. aureus infected thigh", "setting": "E. coli vs S. aureus", "result": "significantly more intensity"}, {"measurement": "probe associated with bacteria (percent of total radioactivity)", "setting": "K. pneumoniae [5]", "result": "71.1%±8.6%"}, {"measurement": "accumulation in eukaryotic cell line", "setting": "J774 macrophages", "result": "not"}, {"measurement": "accumulation of the probe", "setting": "Pseudomonas aeruginosa", "result": "did not accumulate"}, {"measurement": "uptake in heat killed bacteria", "setting": "heat killed bacteria", "result": "did not incorporate"}, {"measurement": "lung vs. blood gamma count ratio", "setting": "K. pneumoniae [6]", "result": "10.89±4.09"}, {"measurement": "ratio of standardized uptake values, infiltrated vs normal lung tissue ROIs", "setting": "K. pneumoniae [6]; 18.5 MBq (data not shown)", "result": "5.02±66.33"}, {"measurement": "accumulation of the probe", "setting": "[7]", "result": "did not accumulate"}]}
